Where two headings read alike, the source gives them in different places.
Key:
Format in all cases: binding, sheep
[1] = system: IgG fraction of antiserum raised to Immunogen II; assay: Competitive ELISA, antibody RS1833B12 to Immunogen II, tracer ESC4555 (Example 36); settings: Antibody to Immunogen II; cross-reactants at 100 ng/ml; 1000 ng/ml; standard JWH-018
Experimental: (§1) An aqueous solution of each immunogen was formulated with Freund's Complete Adjuvant (FCA) to form an emulsion consisting of 2 mg/ml*immunogen in 50% (v/v) FCA. Three sheep were immunised with this emulsion (1° immunisation), 0.25 ml being intramuscularly injected at each of four sites in the flank of each animal. Subsequent immunizations (boosts) contained 1 mg/ml*immunogen. All boosts were emulsified in 50% (v/v) Freund's Incomplete Adjuvant (FIA) and were administered in the same manner as the 1° immunisation, at monthly intervals. Blood sampling took place 7 to 14 days after each boost. *The general procedure for immunogen administration is outlined above, however, it was necessary to deviate from this protocol in some cases, due to reduced immunogen concentrations (Immunogens II, IV, VII and VIII) and/or amount available (Immunogen VIII). Any deviations from the protocol described are outlined in Table 5 below and highlighted in bold.
The appropriate antibody coating dilution was determined using standard ELISA checkerboard techniques. The plate was incubated overnight at 4° C., washed 4 times over 10 minutes with Tris buffered saline containing Tween 20 (TBST) and tapped dry. […] 75 μl of conjugate (appropriate hapten-HRP) diluted in Tris buffer (pH 7.2) containing EDTA, D-mannitol, sucrose, thimerosal and BSA, was added to each of the wells. The appropriate dilution of conjugate was also determined using standard ELISA checkerboard techniques. The plate was incubated at 25° C. for 1 hour. Excess unbound conjugate was removed by washing 6 times over a 10 minute period with TBST. 125 μl of tetramethylbenzidine (TMB) substrate solution was added to each well of the plate that was then incubated for 20 minutes in the dark at room temperature. The reaction was terminated by addition of 125 μl 0.2M H2SO4 to each well. The absorbance was then measured at 450 nm using a microtiter plate reader. The data are inputted to a computer program called ‘KC Junior’. It is a 4 parameter fit curve and allow the calculation of concentrations between the standard runs.
In a similar manner to that described above, the wells of a 96-well microtiter plate were coated with the IgG fraction of the antiserum raised to Immunogens I or II.
(§2) The data set out in Tables 7-10 are generated using antibodies raised against the indicated Immunogens in a competitive binding assay with the indicated tracers, using the indicated standards
(§3) Using the calibration curves generated and employing a single level of cross reactants, these were used to determine the cross-reactivity of each immunoassay with these substances. These are the standards used for the IC50 and cross-reactivity data generation: […]

[2] = system: IgG fraction of antiserum raised to Immunogen IV; settings: Antibody to Immunogen IV, cross-reactants at 100 ng/ml, 1000 ng/ml, standard JWH-018
Experimental: as §1
(§4) The wells of an enhanced binding 96 well polystyrene microtiter plate were coated with IgG fraction of antiserum raised to Immunogen I or II, diluted in 10 mM Tris, pH8.5 (125 μl/well). The appropriate antibody coating dilution was determined using standard ELISA checkerboard techniques. The plate was incubated overnight at 4° C., washed 4 times over 10 minutes with Tris buffered saline containing Tween 20 (TBST) and tapped dry. Standard solutions (JWH-018 for Immunogens I and II) were applied at 0, 0.625, 1.25, 2.5, 5, 10, 20 and 40 ng/ml and 50 μl of each was added to the appropriate wells. 75 μl of conjugate (appropriate hapten-HRP) diluted in Tris buffer (pH 7.2) containing EDTA, D-mannitol, sucrose, thimerosal and BSA, was added to each of the wells. The appropriate dilution of conjugate was also determined using standard ELISA checkerboard techniques. The plate was incubated at 25° C. for 1 hour. Excess unbound conjugate was removed by washing 6 times over a 10 minute period with TBST. 125 μl of tetramethylbenzidine (TMB) substrate solution was added to each well of the plate that was then incubated for 20 minutes in the dark at room temperature. The reaction was terminated by addition of 125 μl 0.2M H2SO4 to each well. The absorbance was then measured at 450 nm using a microtiter plate reader. The data are inputted to a computer program called ‘KC Junior’. It is a 4 parameter fit curve and allow the calculation of concentrations between the standard runs. This program is used to calculate the IC50s by dividing the 0 ng/ml OD value by 2 and obtaining the concentration value from the curve for this OD.
(§5) In a similar manner to that described above, the wells of a 96-well microtiter plate were coated with the IgG fraction of the antiserum raised to Immunogens IV, VII or VIII. Standard solutions (JWH-018 for Immunogens IV and VIII, JWH-015 for Immunogen VII) were prepared in TBST at 0, 1.25, 2.5, 5, 10, 20, 40 and 80 ng/ml and conjugate was employed as detection reagent.
as §2
(§6) In order to determine the specificity of the competitive ELISAs, standard solutions of a range of structurally similar synthetic cannabinoids and their metabolites were prepared in TBST.
as §3

[3] = system: IgG fraction of antiserum raised to Immunogen VIII; settings: Antibody to Immunogen VIII, cross-reactants at 100 ng/ml, 1000 ng/ml, standard JWH-018
Experimental: as §1, §4, §5, §2, §6, §3

[4] = system: IgG fraction of antiserum raised to Immunogen VII; settings: Antibody to Immunogen VII, cross-reactants at 100 ng/ml, 1000 ng/ml, standard JWH-015
Experimental: as §1, §4, §5, §2, §6, §3

[5] = system: IgG fraction of antiserum raised to Immunogen I; settings: Antibody to Immunogen I, cross-reactants at 100 ng/ml, 1000 ng/ml, standard JWH-018
Experimental: as §1, §4
In a similar manner to that described above, the wells of a 96-well microtiter plate were coated with the IgG fraction of the antiserum raised to Immunogens I or II. Standard solutions (JWH-018 for Immunogen I and II) were applied at 0, 0.625, 1.25, 2.5, 5, 10, 20 and 40 ng/ml and conjugate was employed as detection reagent.
as §2, §6, §3

Row | Compound | % B/B0 [1] | % B/B0 [2] | % B/B0 [3] | % B/B0 [4] | % B/B0 [5] | % B/B0 ([2]; listed as JWH-164) | % B/B0 ([3]; listed as JWH-164) | % B/B0 ([4]; listed as JWH-164) | % B/B0 ([5]; listed as JWH-164)
1 | O=C(c1cccc(I)c1)c1cn(CCCCCF)c2ccccc12 [AM-694 3-iodo isomer] | 48.58% | 37.20% | 12.71% | 89.49% | 31.37% |  |  |  | 
2 | CC(C)(C)Cn1cc(C(=O)c2cccc3ccccc23)c2ccccc21 [JWH-018 N-(2,2-dimethylpropyl) isomer] | 60.15% | 80.42% | 95.09% | 52.46% | 3.89% |  |  |  | 
3 | Cc1ccc(C(=O)c2cn(CCCCCO)c3ccccc23)c2ccccc12 [JWH-122 N-(5-hydroxypentyl) metabolite] | 71.76% | 25.72% | 48.67% | 83.65% | 42.80% |  |  |  | 
4 | COc1cccc(CC(=O)c2cn(CCC3CCCCC3)c3ccccc23)c1 [RCS-8 3-methoxy isomer] |  | 89.43% | 83.62% | 93.73% | 93.24% |  |  |  | 
5 | CCCCCn1cc(C(=O)Cc2cccc(Cl)c2)c2ccccc21 [JWH 203 3-chloro isomer] |  | 55.09% | 10.34% | 97.42% | 95.59% |  |  |  | 
6 | CCCCn1cc(C(=O)c2ccc(OC)cc2)c2ccccc21 [RCS-4-C4 homologue] |  | 27.17% | 9.54% | 100.20% | 76.27% |  |  |  | 
7 | CCCCCn1cc(C(=O)Cc2cccc(C)c2)c2ccccc21 [JWH 251 3-methylphenyl isomer] |  | 51.15% | 8.97% | 99.32% | 85.90% |  |  |  | 
8 | CCc1ccc(C(=O)c2cn(CCCCCC(=O)O)c3ccccc23)c2ccccc12 [JWH-210 N-(5-carboxypentyl) metabolite] |  | 85.29% | 96.27% | 96.07% | 76.77% |  |  |  | 
9 | CCCCCn1cc(C(=O)c2cccc3ccc(OC)cc23)c2ccccc21 [JWH-081 7-methoxynaphthyl isomer] |  | 39.20% | 59.51% | 97.60% | 88.26% | 36.14% | 57.93% | 96.13% | 91.86%
10 | CCCCCn1cc(C(=O)Cc2ccccc2C)c2ccccc21 [JWH-251] |  | 42.02% | 9.12% | 96.74% | 68.01% |  |  |  | 
11 | CCCCCn1cc(C(=O)c2ccc(CC)c3ccccc23)c2cc(O)ccc21 [JWH-210 5-hydroxyindole metabolite] |  | 48.91% | 87.72% | 100.43% | 83.29% |  |  |  | 
12 | CCCCCCC(C)(C)c1ccc([C@@H]2C[C@H](O)CC[C@H]2CCCO)c(O)c1 (racemic) [(+−)-CP 55,940] |  | 94.60% | 100.25% | 100.25% | 100.61% |  |  |  | 
13 | CCCCCn1cc(C(=O)Cc2ccccc2Cl)c2ccccc21 [JWH-203] |  | 52.15% | 9.19% | 99.08% | 72.55% |  |  |  | 
14 | (+)-CP 55,940 |  | 91.38% | 95.12% | 97.15% | 103.25% |  |  |  | 
15 | CCCCCn1cc(C(=O)c2ccc(CC)c3ccccc23)c2ccccc21 [JWH-210] |  | 5.53% | 16.87% | 96.62% | 91.18% |  |  |  | 
16 | COc1ccc(CC(=O)c2cn(CCC3CCCCC3)c3ccccc23)cc1 [RCS-8 4-methoxy isomer] |  | 90.78% | 100.72% | 98.21% | 94.94% |  |  |  | 
17 | COc1ccc(C(=O)c2cn(CCCCCO)c3ccccc23)c2ccccc12 [JWH-081 N-(5-hydroxypentyl) metabolite] |  | 26.31% | 47.16% | 89.31% | 61.86% |  |  |  | 
18 | CCCC(C)(C)c1ccc2c(c1)OC(C)(C)[C@@H]1CC=C(C)C[C@@H]21 [JWH-133] |  | 98.18% | 100.00% | 101.84% | 100.56% |  |  |  | 
19 | CCCCCn1cc(C(=O)c2ccc(CCC)c3ccccc23)c2ccccc21 [JWH-182] |  | 12.83% | 30.65% | 98.40% | 107.08% |  |  |  | 
20 | O=C(c1ccc(I)cc1)c1cn(CCCCCF)c2ccccc12 [AM-694 4-iodo isomer] |  | 27.66% | 13.42% | 98.71% | 73.79% |  |  |  | 
21 | COc1ccc(C(=O)c2cn(CCCCCC(=O)O)c3ccccc23)cc1 [RCS-4 N-(5-carboxypentyl) metabolite] |  | 91.44% | 91.97% | 94.00% | 77.12% |  |  |  | 
22 | CS(=O)(=O)O.Cc1c(C(=O)c2cccc3ccccc23)c2cccc3c2n1[C@@H](CN1CCOCC1)CO3 [Win 55,212-3 mesylate] |  | 94.57% | 101.30% | 32.31% | 34.00% |  |  |  | 
23 | COc1ccc(C(=O)c2cn(CCCCCO)c3ccccc23)cc1 [RCS-4 N-(5-hydroxypentyl) metabolite] |  | 61.03% | 19.13% | 94.55% | 59.51% |  |  |  | 
24 | COc1ccccc1CC(=O)c1cn(CCC2CCCCC2)c2ccccc12 [RCS-8] |  | 85.50% | 88.79% | 94.57% | 82.65% |  |  |  | 
25 | CN1CCCCC1Cn1cc(C(=O)c2cc([N+](=O)[O-])ccc2I)c2ccccc21 (centres unmarked) [AM-1241] |  | 91.38% | 102.46% | 94.96% | 85.61% |  |  |  | 

— US9434687B2, “Detection of synthetic cannabinoids” (priority 2011, dated 2016)
